Results on eight molecules are retold here after patent US20230348444A1, “NOVEL COMPOUNDS FOR USE IN THE TREATMENT OF DISEASES ASSOCIATED WITH ANGIOTENSIN II” (Vicore Pharma AB, priority 2020, published 2023).

Common to all, as to assay type: in vitro ADME
For one data set, the target named is CYP2C9 (Homo sapiens, UniProt P11712). The data set is described as follows: CYP inhibition in human liver microsomes (Eurofins protocol ITEMG232). On the set-up: using isoform-specific substrates incubated with human liver microsomes; tissue Eurofins ITEMG232; host or cells: human liver microsomes. The note with it: probe diclofenac, substrate diclofenac, read-out: CYP2C9 Inh %. On the procedure:
(§1) The following substrates were used; CYP1A phenacetin, CYP2B6 bupropion, CYP2C8 paclitaxel and amodiaquine, CYP2C9 diclofenac, CYP2C19 omeprazole, CYP2D6 dextromethorphan, CYP3A midazolam and testosterone.
(§2) At the end of the incubation, the formation of metabolite was monitored by HPLC-MS/MS as the peak area response.

The next data set addresses T1, CYP2C8 (Homo sapiens, UniProt P10632).
T1 construct: using isoform-specific substrates incubated with human liver microsomes; tissue Eurofins ITEMG232; host or cells: human liver microsomes
T1 sequence (P10632 1-490): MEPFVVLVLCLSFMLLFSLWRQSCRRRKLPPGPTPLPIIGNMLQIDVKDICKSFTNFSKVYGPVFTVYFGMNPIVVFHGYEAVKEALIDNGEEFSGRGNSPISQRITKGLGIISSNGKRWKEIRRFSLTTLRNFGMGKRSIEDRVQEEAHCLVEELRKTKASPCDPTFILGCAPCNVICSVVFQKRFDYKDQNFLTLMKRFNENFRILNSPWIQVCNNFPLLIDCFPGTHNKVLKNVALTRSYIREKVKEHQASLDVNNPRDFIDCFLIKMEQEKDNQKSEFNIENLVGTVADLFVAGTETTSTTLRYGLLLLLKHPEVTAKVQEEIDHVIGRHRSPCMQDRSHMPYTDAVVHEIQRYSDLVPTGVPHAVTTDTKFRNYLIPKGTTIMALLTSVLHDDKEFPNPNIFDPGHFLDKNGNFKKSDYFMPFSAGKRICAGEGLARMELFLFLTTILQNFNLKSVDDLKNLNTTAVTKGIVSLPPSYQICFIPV
Described as above. The note with it: probe paclitaxel and amodiaquine, substrates paclitaxel and amodiaquine, read-out: CYP2C8 Inh %. On the procedure: as §1, §2

Another data set addresses T2, CYP1A (Homo sapiens, UniProt P05177).
T2 construct: using isoform-specific substrates incubated with human liver microsomes; tissue Eurofins ITEMG232; host or cells: human liver microsomes
T2 sequence (P05177 2-516 limits assumed): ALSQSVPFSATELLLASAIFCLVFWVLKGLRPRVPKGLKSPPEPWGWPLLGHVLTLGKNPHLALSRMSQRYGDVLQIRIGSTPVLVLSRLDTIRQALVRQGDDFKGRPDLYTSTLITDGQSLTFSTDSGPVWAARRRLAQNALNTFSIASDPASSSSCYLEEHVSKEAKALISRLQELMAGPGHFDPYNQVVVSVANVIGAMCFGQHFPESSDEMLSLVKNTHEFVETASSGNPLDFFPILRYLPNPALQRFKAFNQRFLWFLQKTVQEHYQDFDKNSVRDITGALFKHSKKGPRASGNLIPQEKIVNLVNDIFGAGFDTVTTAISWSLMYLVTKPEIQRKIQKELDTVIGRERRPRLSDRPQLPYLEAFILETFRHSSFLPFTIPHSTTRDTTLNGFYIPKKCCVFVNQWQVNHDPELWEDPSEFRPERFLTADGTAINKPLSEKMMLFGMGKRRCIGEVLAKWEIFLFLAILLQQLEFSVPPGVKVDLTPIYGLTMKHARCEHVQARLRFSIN
Described as above. As to conditions: probe phenacetin, substrate phenacetin, read-out: CYP1A Inh %. On the procedure: as §1, §2

The next data set addresses T3, CYP2B6 (Homo sapiens, UniProt P20813).
T3 construct: using isoform-specific substrates incubated with human liver microsomes; tissue Eurofins ITEMG232; host or cells: human liver microsomes
T3 sequence (P20813 1-491): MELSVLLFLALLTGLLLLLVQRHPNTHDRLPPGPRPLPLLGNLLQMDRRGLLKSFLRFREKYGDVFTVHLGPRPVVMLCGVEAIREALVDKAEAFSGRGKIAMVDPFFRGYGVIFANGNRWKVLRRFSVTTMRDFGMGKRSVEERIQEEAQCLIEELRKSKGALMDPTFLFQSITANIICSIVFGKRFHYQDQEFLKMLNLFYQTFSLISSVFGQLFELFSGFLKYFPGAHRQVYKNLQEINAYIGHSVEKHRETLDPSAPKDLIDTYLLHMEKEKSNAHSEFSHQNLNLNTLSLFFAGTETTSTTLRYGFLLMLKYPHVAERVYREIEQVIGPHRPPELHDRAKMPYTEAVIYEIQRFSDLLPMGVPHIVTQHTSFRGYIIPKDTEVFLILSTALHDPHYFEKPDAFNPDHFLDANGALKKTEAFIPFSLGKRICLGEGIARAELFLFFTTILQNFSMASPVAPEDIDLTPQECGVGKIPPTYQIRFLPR
Described as above. The note with it: probe bupropion, substrate bupropion, read-out: CYP2B6 Inh %. On the procedure: as §1, §2

A further data set concerns the target T4, CYP2C19 (Homo sapiens, UniProt P33261).
T4 construct: using isoform-specific substrates incubated with human liver microsomes; tissue Eurofins ITEMG232; host or cells: human liver microsomes
The description is as above. As to conditions: probe omeprazole, substrate omeprazole, read-out: CYP2C19 Inh %. On the procedure: as §1, §2

Another data set deals with T5, CYP2D6 (Homo sapiens, UniProt P10635).
T5 construct: tissue Eurofins ITEMG232; host or cells: human liver microsomes
The description is as above. The note with it: probe dextromethorphan, substrate dextromethorphan, read-out: CYP2D6 Inh %. On the procedure:
as §1, §2

A further data set has as its system CYP3A4&5. As to the kind of experiment: CYP inhibition in human liver microsomes (Eurofins protocol ITEMG232), testosterone substrate. As to conditions: probe testosterone, read-out: CYP3A4&5 testosterone Inh %. On the procedure:
as §1, §2
For orientation: Microsomes from liver hold many membrane-bound enzymes, among them those of drug oxidation.

The target of another data set is CYP3A4 (Homo sapiens, UniProt P08684). As to the kind of experiment: CYP inhibition in human liver microsomes (Eurofins protocol ITEMG232), midazolam substrate. The arrangement: using isoform-specific substrates incubated with human liver microsomes; tissue Eurofins ITEMG232; host or cells: human liver microsomes. As to conditions: probe midazolam, read-out: CYP3A4 midazolam Inh %. On the procedure:
as §1, §2

Data set [1] can be described thus: Metabolic stability in pooled human liver microsomes with or without NADPH. The note with it: human, pooled human liver microsomes, pooled human liver microsomes 0.5 mg/mL in PBS, 1 uM test compound, 37° C. On the procedure: Pooled human liver microsomes in PBS at a concentration of 0.5 mg/mL was incubated with or without 1 mM NADPH for 70 min at 37° C. Test compound was added after 10 minutes to a final concentration of 1 uM. Samples were withdrawn at 0, 5, 15 and 60 minutes and added to test tubes containing acetonitrile, to stop the reaction, and with terfenadine, used as internal standard. After centrifugation at 10000×g for 5 minutes the supernatant was diluted 1:1 with 1% formic acid. Samples were separated on a reverse phase column and detected by triple quadrupole MSMS (Agilant model 6540). The concentration of the parent compound at the different time points was measured with an external standard curve using terfenadine as internal standard and the initial metabolic rate in the presence or absence of NADPH calculated.

Where [2] appears, read: with 1 mM NADPH, read-out: T1/2, +NaDPH.
Setting [3] is: without NADPH, read-out: T1/2, no NaDPH.

Like-named read-outs stand apart in the source and are kept apart here.

Sequence of CYP2C9 (P11712 whole entry, canonical isoform): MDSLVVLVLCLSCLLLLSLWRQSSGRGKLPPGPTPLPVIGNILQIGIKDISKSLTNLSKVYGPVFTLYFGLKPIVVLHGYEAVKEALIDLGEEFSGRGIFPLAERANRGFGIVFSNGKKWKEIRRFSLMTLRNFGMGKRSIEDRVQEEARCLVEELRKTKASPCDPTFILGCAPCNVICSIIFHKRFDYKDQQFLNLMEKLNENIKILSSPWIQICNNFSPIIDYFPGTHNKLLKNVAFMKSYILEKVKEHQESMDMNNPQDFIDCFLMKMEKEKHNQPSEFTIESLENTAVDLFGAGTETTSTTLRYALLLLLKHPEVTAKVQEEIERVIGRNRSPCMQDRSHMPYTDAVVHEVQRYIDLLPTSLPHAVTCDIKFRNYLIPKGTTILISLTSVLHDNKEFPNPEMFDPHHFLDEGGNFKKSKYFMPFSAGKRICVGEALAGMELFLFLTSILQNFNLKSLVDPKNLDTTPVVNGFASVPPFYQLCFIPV
T5 sequence (P10635 whole entry): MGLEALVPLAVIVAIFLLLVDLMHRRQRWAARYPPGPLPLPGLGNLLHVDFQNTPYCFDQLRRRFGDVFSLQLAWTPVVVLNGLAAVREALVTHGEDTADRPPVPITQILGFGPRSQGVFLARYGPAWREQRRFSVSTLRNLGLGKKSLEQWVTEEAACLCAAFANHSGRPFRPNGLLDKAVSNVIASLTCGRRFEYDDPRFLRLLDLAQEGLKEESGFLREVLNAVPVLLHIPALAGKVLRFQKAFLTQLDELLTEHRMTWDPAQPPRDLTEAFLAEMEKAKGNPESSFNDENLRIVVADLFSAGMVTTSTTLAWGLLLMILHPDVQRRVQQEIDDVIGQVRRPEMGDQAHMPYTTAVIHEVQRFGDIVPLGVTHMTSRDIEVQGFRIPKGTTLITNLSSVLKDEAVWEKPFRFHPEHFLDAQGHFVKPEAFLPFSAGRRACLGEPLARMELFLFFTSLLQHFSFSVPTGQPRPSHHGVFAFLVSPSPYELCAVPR
T4 sequence (P33261 whole entry, canonical isoform): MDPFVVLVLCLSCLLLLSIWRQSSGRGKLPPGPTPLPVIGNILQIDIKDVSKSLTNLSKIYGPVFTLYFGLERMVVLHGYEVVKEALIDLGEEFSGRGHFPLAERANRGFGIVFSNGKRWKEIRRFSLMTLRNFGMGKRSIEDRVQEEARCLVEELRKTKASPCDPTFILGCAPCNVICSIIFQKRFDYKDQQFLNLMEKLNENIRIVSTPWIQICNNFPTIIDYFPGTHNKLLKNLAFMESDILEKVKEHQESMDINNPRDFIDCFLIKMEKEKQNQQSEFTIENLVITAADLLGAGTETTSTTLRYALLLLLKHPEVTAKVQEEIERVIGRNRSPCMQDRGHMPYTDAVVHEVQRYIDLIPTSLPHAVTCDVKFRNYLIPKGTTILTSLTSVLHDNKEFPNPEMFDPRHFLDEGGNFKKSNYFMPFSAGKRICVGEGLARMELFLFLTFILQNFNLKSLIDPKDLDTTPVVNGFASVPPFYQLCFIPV
Sequence of CYP3A4 (P08684 whole entry, canonical isoform): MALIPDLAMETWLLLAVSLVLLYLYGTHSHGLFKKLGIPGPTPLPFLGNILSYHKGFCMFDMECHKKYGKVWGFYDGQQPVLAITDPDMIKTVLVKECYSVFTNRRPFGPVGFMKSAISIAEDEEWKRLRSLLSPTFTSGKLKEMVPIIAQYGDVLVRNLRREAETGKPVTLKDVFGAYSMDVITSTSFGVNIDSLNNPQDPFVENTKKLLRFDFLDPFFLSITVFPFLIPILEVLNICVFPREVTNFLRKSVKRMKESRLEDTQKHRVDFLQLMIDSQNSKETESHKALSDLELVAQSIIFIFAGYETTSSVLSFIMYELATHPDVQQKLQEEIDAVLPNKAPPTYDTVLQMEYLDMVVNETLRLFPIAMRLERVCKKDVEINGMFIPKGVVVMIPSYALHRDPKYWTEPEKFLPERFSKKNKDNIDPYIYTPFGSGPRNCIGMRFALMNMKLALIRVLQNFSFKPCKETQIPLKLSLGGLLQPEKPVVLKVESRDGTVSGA

Take `CCCCOC(=O)NS(=O)(=O)c1sc(CC(C)C)cc1-c1ccc(Cn2ccnc2C)c(F)c1` [Example 2, Butyl (3-(3-fluoro-4-((2-methyl-1H-imidazol-1-yl)methyl)phenyl)-5-isobutylthiophen-2-yl)sulfonylcarbamate trifluoroacetic acid]: the inhibition at 10 µM was 70% on CYP2C9; 80% on CYP2C8; 19% at CYP1A; 41% at CYP2B6; 55% at CYP2C19; 22% on CYP2D6. Moreover, the inhibition at 10 µM with CYP3A4&5 was 21%; at CYP3A4 it was -15%.

For `Cc1nccn1Cc1ccc(-c2cc(CC(C)C)sc2S(=O)(=O)NC(=O)OCCO)cc1F.O=C(O)C(F)(F)F` [Example 4, 2-Hydroxyethyl (3-(3-fluoro-4-((2-methyl-1H-imidazol-1-yl)methyl)phenyl)-5-isobutyl-thiophen-2-yl)sulfonylcarbamate trifluoroacetic acid], the inhibition at 10 µM at CYP2C9 is 58%; at CYP2C8, 54%; on CYP1A it was 27%; on CYP2B6 it was 55%; at CYP2C19, 31%; on CYP2D6, 54%. Also, the inhibition at 10 µM was 22% in the data set with CYP3A4&5 and -66% at CYP3A4. In addition, the half-life at 1 uM in [1] (setting [2]) and in data set [1] (setting [3]) was > 1 h in each case.

With `CCc1nccn1Cc1ccc(-c2cc(CC(C)C)sc2S(=O)(=O)NC(=O)OCCC(F)(F)F)cc1F.O=C(O)C(F)(F)F` [Example 5, 3,3,3-Trifluoropropyl (3-(4-((2-ethyl-1H-imidazol-1-yl)methyl)-3-fluorophenyl)-5-iso-butyl-thiophen-2-yl)sulfonylcarbamate trifluoroacetic acid], the inhibition at 10 µM worked out at 71% at CYP2C9; 64% at CYP2C8; 35% at CYP1A; 37% on CYP2B6; 63% at CYP2C19; 49% at CYP2D6. Moreover, the figures for the inhibition at 10 µM in the data set with CYP3A4&5 and on CYP3A4 were 5% and -24%, respectively. Further, the figures for the half-life at 1 uM in data set [1] (setting [2]) and in [1] (setting [3]) were 0.3 h and 0.917 h, respectively.

As to `CC(C)Cc1cc(-c2ccc(Cn3ccnc3C(C)(C)C)c(F)c2)c(S(=O)(=O)NC(=O)OCCO)s1` [Example 17, 2-Hydroxyethyl (3-(4-((2-(tert-butyl)-1H-imidazol-1-yl)methyl)-3-fluorophenyl)-5-isobutylthiophen-2-yl)sulfonylcarbamate], the inhibition at 10 µM at CYP2C9 came out at 36.8%; at CYP2C8 it was 78.6%; at CYP1A it was 29.9%; at CYP2B6 it was 33.8%; at CYP2C19, 53.1%; at CYP2D6, 73.4%. Moreover, the inhibition at 10 µM with CYP3A4&5 is 3.7%; on CYP3A4, -20.6%.

In the case of `COC(=O)NS(=O)(=O)c1sc(CC(C)C)cc1-c1ccc(Cn2ccnc2C(C)(C)C)c(F)c1` [Example 20, Methyl (3-(4-((2-(tert-butyl)-1H-imidazol-1-yl)methyl)-3-fluorophenyl)-5-isobutylthiophen-2-yl)sulfonylcarbamate], the inhibition at 10 µM stood at 57.9% on CYP2C9; 90.5% at CYP2C8; 46% on CYP1A; 32.6% on CYP2B6; 45.6% on CYP2C19; 22.3% on CYP2D6. The inhibition at 10 µM in the data set on CYP3A4&5 was -4.8%; on CYP3A4, -56.9%.

Regarding `COC(=O)NS(=O)(=O)c1sc(CC(C)C)cc1-c1ccc(Cn2ccnc2C)c(F)c1` [Example 21, Methyl (3-(3-fluoro-4-((2-methyl-1H-imidazol-1-yl)methyl)phenyl)-5-isobutyl-thio-phen-2-yl)sulfonylcarbamate], the inhibition at 10 µM at CYP2C9 was 51.4%; at CYP2C8, 44.2%; on CYP1A, 58.7%; at CYP2B6 it was 16.6%; at CYP2C19 it was 13.8%; on CYP2D6 it was 16.3%. Also, the inhibition at 10 µM is 8% in the data set with CYP3A4&5 and -48% on CYP3A4. The half-life at 1 uM in [1] (setting [2]) and in data set [1] (setting [3]) was > 1 h throughout.

In the case of `CC(C)Cc1cc(-c2ccc(Cn3ccnc3C(C)(C)C)c(F)c2)c(S(=O)(=O)NC(=O)OCC(C)(C)O)s1` [Example 23, 2-Hydroxy-2-methylpropyl (3-(4-((2-(tert-butyl)-1H-imidazol-1-yl)methyl)-3-fluoro-Phenyl)-5-isobutylthiophen-2-yl)sulfonylcarbamate], the inhibition at 10 µM on CYP2C9 turned out to be 47%; at CYP2C8, 74.7%; at CYP1A it was 16.7%; on CYP2B6, 16.8%; at CYP2C19 it was 51.2%; on CYP2D6 it was 5.8%. For the same molecule, the inhibition at 10 µM with CYP3A4&5 is 12.5%; on CYP3A4 it was -14.1%.

With `CCc1nccn1Cc1ccc(-c2cc(CC(C)C)sc2S(=O)(=O)NC(=O)OCCO)cc1F` [Example 24, 2-Hydroxyethyl (3-(4-((2-ethyl-1H-imidazol-1-yl)methyl)-3-fluorophenyl)-5-isobutyl-thiophen-2-yl)sulfonylcarbamate], the half-life at 1 uM in [1] (setting [2]) and in data set [1] (setting [3]) was > 1 h in each case.
